“Also recorded” adds a separate entry of the source.

Data on four substances can be found in US20260191861A1, “INFLAMMASOME AND VEGF INHIBITION FOR RETINAL VASCULAR DISEASES” (University of Virginia Patent Foundation, priority 2022, published 2026).

Experiment [1] concerns participants with diabetic macular edema. As to the kind of experiment: Retinal central subfield thickness by spectral-domain OCT, including synthetic controls from DRCR.net Protocol T. As to conditions: for IPTW mixed-effect model: change in central subfield thickness, Treatment × week [8] estimate / Mixed-effect model: change in central subfield thickness, Treatment × week [8] estimate: interaction term; for IPTW mixed-effect model: change in central subfield thickness from baseline, treatment estimate (ref = Placebo) / Mixed-effect model: change in central subfield thickness from baseline, treatment estimate (ref = Placebo): main effect (week 4); for Mixed-effect model: change in central subfield thickness, Treatment × week [8] estimate / Mixed-effect model: change in central subfield thickness from baseline, treatment estimate (ref = Placebo): unweighted model. The experiment is classed as in vivo, human. How it is done: (§1) Propensity score methods were used to select DRCR.net Protocol T study participants similar to lamivudine-treated patients. Inverse probability treatment weights (IPTW) and propensity score matching were used. To estimate the IPTW weights, a multinomial logistic regression was used to estimate propensity scores using important predictors including baseline visual acuity and baseline central subfield thickness along with age, gender, and duration of diabetes. Weights were calculated as the reciprocal of the estimated propensity score of the actual treatment received. Weights were then truncated at the 99th percentile. For the propensity score matched analysis, lamivudine-treated patients were matched to each DRCR.net Protocol T treatment arm (aflibercept, bevacizumab, ranibizumab) and placebo group, separately. Due to the limited sample size for matching within each group, propensity score models included the most important predictors of acuity change including baseline visual acuity, age and duration of diabetes.
(§2) For the IPTW analysis, a mixed-effects weighted model was fit with subject-specific random effects. […] The model's estimates, confidence intervals (CI), and P values were reported for each predictor. Additionally, model-based contrasts were conducted to compare the change in VALS from baseline between lamivudine and the Protocol T treatments.
(§3) Secondary outcomes included the change in central subfield thickness, the percentage of eyes with an improvement in VALS of 15 or more, the correlation between improvements in visual acuity and central subfield thickness, and systemic and ocular adverse events. Change in central subfield thickness was estimated using mixed-effects models, similar to the VALS analysis. To analyze a VALS improvement of at least 15 letters, logistic regression using generalized estimating equations (GEEs) was specified with an exchangeable correlation matrix. Model-based contrasts were estimated to make pairwise treatment comparisons.
In all consultations, patients underwent tomography with the Spectralis device (Heidelberg) under mydriasis. The acquisition protocol was the 6×6 mm region centered on the fovea. Data analysis from SD-OCT was restricted to the central field (1 mm in diameter) Intravitreous Injection of Anti-VEGF

Experiment [2] shares this test system. The conditions noted are these: week 8, included DRCR.net Protocol T patients (synthetic controls); cited from earlier work.
For experiment [3] the test system is unchanged. As to conditions: week 8, synthetic controls of DRCR.net Protocol T; cited from earlier work.
Experiment [4] has the same test system. As to the kind of experiment: Visual acuity (VALS) compared with synthetic controls from the DRCR.net Protocol T study (IPTW, propensity score matching, GEE). The experiment is classed as in vivo, human.
Text: The second analysis included participants from the lamivudine versus placebo trial, along with a synthetic comparator created using data from the DRCR.net Protocol T study. The source of the data is DRCR.net (2018) A Comparative Effectiveness Study of Intravitreal Aflibercept, Bevacizumab and Ranibizumab for Diabetic Macular Edema, retrieved from https://public.jaeb.org/drcrnet/stdy/download/206. The analyses, content, and conclusions presented herein are solely the responsibility of the authors and have not been reviewed or approved by DRCR.net.
Inclusion criteria for participants from the DRCR.net Protocol T study were based on their similarity to the lamivudine versus placebo trial design. This involved selecting only patients with type 2 diabetes, study eyes with a baseline VALS<69, and complete follow-up visual acuity measurements at weeks 4 and 8.
as §1, §2
For each propensity score matched group (e.g., lamivudine-bevacizumab, lamivudine-aflibercept), a mixed effect model was fit estimating the change in visual acuity from baseline. Subject specific random effect was included along with fixed effect predictors: treatment group, baseline VALS, central subfield thickness, eye (left vs right), age, sex, race and type 2 diabetes duration.
as §3

The test system of experiment [5] is caspase-1. As to the kind of experiment: Rhegmatogenous retinal detachment (RRD) model: retinal caspase-1 cleavage by immunoblot. The experiment is classed as in vivo, mouse. How it is done:
(§4) All experiments involving animals were approved by the University of Virginia Institutional Animal Care and Use Committee (IACUC) and adhered to the Association for Research in Vision and Ophthalmology (ARVO) Statement for the Use of Animals in Ophthalmic and Vision Research. Animal subjects were male and female mice aged 6 to 10 weeks. Wild type C57BL/6J mice were obtained from the Jackson Laboratory (Bar Harbor, ME, USA). To anesthetize mice for study procedures, ketamine hydrochloride (100 mg/kg; Ft. Dodge Animal Health, Overland Park, KS, USA) and xylazine (10 mg/kg; Phoenix Scientific, St. Joseph, MO, USA) were delivered by intraperitoneal (IP) injection. Pupils were dilated with topical 1% tropicamide and 2.5% phenylephrine (Alcon Laboratories, Ft. Worth, TX, USA).
(§5) RRD model was established by subretinal injection (SRI) of 3 μl 1% carboxymethyl cellulose (CMC; Refresh Liquigel, Allergan, Irvine, CA, USA).
(§6) NRTIs and K-9 were delivered via intraperitoneal (IP) injection in equimolar amounts. […] Kamuvudine K-9 (3-methyl-3TC, MW=273 g/mol) was administered either at a low dose (K-9L; 90 mg/kg daily) or a high dose (K-9H; 60 mg/kg twice daily, equimolar to NRTI doses). IP injection of phosphate buffered saline (PBS) was used as control.
Retinal tissue was extracted and lysed by sonication in radioimmunoprecipitation assay (RIPA) buffer (MilliporeSigma, Darmstadt, Germany). The Pierce BCA Protein Assay Kit (ThermoFisher Scientific, Waltham, MA, USA) was used to determine protein concentrations of interest. Samples were prepared that contained equal concentrations of total protein (10-100 μg). Protein samples were resolved by SDS-PAGE and transferred onto Immobilon-FL PVDF membranes (Millipore, Billerica, MA, USA). Membranes were blocked in Odyssey Blocking Buffer (PBS) for 1 hour at room temperature, and then incubated overnight with primary antibody at 4° C. Across study experiments, the following antibodies were used: anti-mouse caspase-1 (1:1000; AG-20B-0042; AdipoGen Life Sciences, San Diego, CA, USA), and anti-mouse GAPDH (1:1000; 2118; Cell Signaling, Danvers, MA, USA). […]

The test system of experiment [6] is photoreceptors (TUNEL+ cells in the ONL). The experiment is described as follows: RRD model: TUNEL assay of the retinal outer nuclear layer. The experiment is classed as in vivo, mouse. The protocol:
as §4, §5, §6
Retinal cross cryosections at a thickness of 10 μm were stained with TUNEL (TdT-mediated dUTP nick-end labeling) using the In Situ Cell Death Detection Kit (Roche Diagnostics, Indianapolis, IN, USA) according to the manufacturer's′ instructions. The sections were wet-mounted with ProLong anti-fade reagent with DAPI (P36935, ThermoFisher Scientific, Waltham, MA, USA) and visualized using an A1R laser confocal microscope (Nikon, Tokyo, Japan). Fourteen representative sections, including the optic nerve, were used per treatment group. To calculate the number of TUNEL+ cells in the outer nuclear layer (ONL), the retina analysis toolkit of ImageJ (2.1.0; NIH, Bethesda, MD, USA) was used.

Setting [7] is: IPTW model with synthetic controls.
Where [8] appears, read: Original (unweighted) model with synthetic controls.
Setting [9] is: day 3 RRD, equimolar IP doses twice daily (K-9H 60 mg/kg, 3TC 50 mg/kg).
[10] abbreviates: three days after inducing RRD, IP treatment.

Turning to “Aflibercept: inhibitor of vascular endothelial growth factor (VEGF), intravitreous”, the “IPTW mixed-effect model: change in central subfield thickness, Treatment × week [8] estimate” value (“IPTW mixed-effect model: change … [8] estimate” below) in experiment [1] is reported as 68.54 μm. For the same substance, the “IPTW mixed-effect model: change in central subfield thickness from baseline, treatment estimate (ref = Placebo)” value in experiment [1] was −104.33 μm. Also, in experiment [1], the “Mixed-effect model: change in central subfield thickness, Treatment × week [8] estimate” value is 74.83 μm. The “Mixed-effect model: change in central subfield thickness from baseline, treatment estimate (ref = Placebo)” value in experiment [1] is recorded as −114.55 μm. In addition, in experiment [2], the “percentage of eyes with improvement in VALS of 15 or more” value (from here on “percentage of eyes with improvement”) is recorded as 38%. Further, the “percentage of eyes with VALS improvement of 15 or more that had minimal change in central subfield thickness (≤50 μm)” value in experiment [3] is recorded as 42%. For the same substance, the “GEE model: odds ratio of change in VALS from baseline ≥15 (ref = Placebo)” value (“GEE model: odds ratio of change in VALS” below) in experiment [4] (IPTW model) is given as 19.39; in experiment [4] (Original model), 11.15. Also, the “Mixed effect model: change from baseline visual acuity, treatment estimate (ref: Placebo)” value (“Mixed effect model: change” for short) in experiment [4] (setting [7]) is on record as 8.42; in experiment [4] (IPTW model with synthetic controls, listed as aflibercept) it was 8.4; in experiment [4] (setting [8]) it was 8.48.

As to 3-methyl-3TC [K-9], the “degree of suppression of caspase-1 activation” value in experiment [5] (setting [9]) is on record as 84%+1%. Moreover, in experiment [5] (setting [10]), the “retinal cleaved caspase-1 compared with PBS-treated mice” value is “dose-dependent and complete reduction; also recorded: inhibits RRD-induced caspase-1 cleavage”. Also, the “degree of photoreceptor protection” value in experiment [6] (setting [9]) is 56%+7%. Also, the “number of TUNEL+ cells in the ONL of the retina compared with PBS-treatment” value in experiment [6] (setting [10]) is on record as “dose-dependent reduction; also recorded: protects photoreceptors”.

Take “Bevacizumab: inhibitor of vascular endothelial growth factor (VEGF), intravitreous”: in experiment [1], the “IPTW mixed-effect model: change … [8] estimate” value is 74.82 μm; the “IPTW mixed-effect model: change in central subfield thickness from baseline, treatment estimate (ref = Placebo)” value is −66.35 μm; the “Mixed-effect model: change in central subfield thickness, Treatment × week [8] estimate” value is given as 84.87 μm; the “Mixed-effect model: change in central subfield thickness from baseline, treatment estimate (ref = Placebo)” value is −75.55 μm. In experiment [2], the “percentage of eyes with improvement” value was 24%. For the same substance, the “percentage of eyes with VALS improvement of 15 or more that had minimal change in central subfield thickness (≤50 μm)” value in experiment [3] was 29%. Moreover, the “GEE model: odds ratio of change in VALS” value in experiment [4] (IPTW model) worked out at 10.33. The “Mixed effect model: change” value in experiment [4] (setting [7]) is given as 5.32. In addition, in experiment [4] (IPTW model with synthetic controls, listed as bevacizumab), the “Mixed effect model: change” value is 5.3. For the same substance, the “Mixed effect model: change” value in experiment [4] (setting [8]) is 5.36. For the same substance, the “GEE model: odds ratio of change in VALS” value in experiment [4] (Original model) is recorded as 6.15.

On to “Ranibizumab: inhibitor of vascular endothelial growth factor (VEGF), intravitreous”, for which, in experiment [1], the “IPTW mixed-effect model: change … [8] estimate” value was 75 μm; the “IPTW mixed-effect model: change in central subfield thickness from baseline, treatment estimate (ref = Placebo)” value is reported as −113.67 μm; the “Mixed-effect model: change in central subfield thickness, Treatment × week [8] estimate” value was 85.69 μm; the “Mixed-effect model: change in central subfield thickness from baseline, treatment estimate (ref = Placebo)” value was −122.12 μm. In addition, the “percentage of eyes with improvement” value in experiment [2] is reported as 34%. The “percentage of eyes with VALS improvement of 15 or more that had minimal change in central subfield thickness (≤50 μm)” value in experiment [3] was 41%. In addition, the “GEE model: odds ratio of change in VALS” value in experiment [4] (IPTW model) turned out to be 19.96. Moreover, the “Mixed effect model: change” value in experiment [4] (setting [7]) is given as 7.12. Also, in experiment [4] (IPTW model with synthetic controls, listed as ranibizumab), the “Mixed effect model: change” value was 7.1. The “Mixed effect model: change” value in experiment [4] (setting [8]) was 7.04. Moreover, in experiment [4] (Original model), the “GEE model: odds ratio of change in VALS” value is given as 11.14.
